Laboratory results from PubChem BioAssay AID248 (DTP/NCI, 2004).
Several values for one entry are separate records, joined by “and”; a condition that tells them apart may be missing. Equal values may be shown once. Toxic doses and inconclusive results are not listed.

Tested on: L1210 leukemia ip in BDF1 mice, survival T/C
Test: NCI In Vivo Anticancer Drug Screen. Data for tumor model L1210 Leukemia (intraperitoneal) in B6D2F1 (BDF1) mice
Conditions: endpoint: mean survival time, higher = longer survival
Method in brief: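 Transplanted-tumor mice were given test agent; controls received vehicle only. Survival readings from the two groups were divided (treated over control).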

[1] = dose: 100.0 mg/kg/injection, schedule: Q01DX001 (ip), vehicle: carboxymethylcellulose (CMC)
[2] = dose: 200.0 mg/kg/injection, schedule: Q01DX001 (ip), vehicle: carboxymethylcellulose (CMC)
[3] = dose: 100.0 mg/kg/injection, schedule: Q04DX003 (ip), vehicle: saline
[4] = dose: 100.0 mg/kg/injection, schedule: Q01DX001 (ip), vehicle: saline
[5] = dose: 200.0 mg/kg/injection, schedule: Q01DX001 (ip), vehicle: saline
[6] = dose: 400.0 mg/kg/injection, schedule: Q01DX001 (ip), vehicle: saline
[7] = dose: 100.0 mg/kg/injection, schedule: Q01DX009 (ip), vehicle: saline
[8] = dose: 50.0 mg/kg/injection, schedule: Q01DX009 (ip), vehicle: saline
[9] = dose: 200.0 mg/kg/injection, schedule: Q04DX003 (ip), vehicle: saline

SMILES: c1ccc2c(N=Nc3cccc4ccccc34)cccc2c1
- T/C [1]: 97 % of control
- T/C [2]: 97 % of control
- T/C (dose: 400.0 mg/kg/injection, schedule: Q01DX001 (ip), vehicle: carboxymethylcellulose (CMC)): 93 % of control

SMILES: CN(CCC[N+](C)(C)C)C(=O)C(c1ccccc1)c1ccccc1
- T/C [3]: 100 % of control

SMILES: CCOC(=O)c1ccccc1NC(OCC)C(=O)c1ccccc1 (stereo not given) (tested in a mixture with another compound)
- T/C [4]: 96 % of control
- T/C [5]: 97 % of control
- T/C [6]: 103 % of control

SMILES: CCCCCCC(/C=N/N=C(N)N)=N\N=C(N)N
- T/C (dose: 15.0 mg/kg/injection, schedule: Q01DX Z (ip), vehicle: carboxymethylcellulose (CMC)): 100 % of control
- T/C (dose: 15.0 mg/kg/injection, schedule: Q01DX Z (oral), vehicle: carboxymethylcellulose (CMC)): 101 % of control
- T/C (dose: 30.0 mg/kg/injection, schedule: Q01DX Z (ip), vehicle: carboxymethylcellulose (CMC)): 95 % of control
- T/C (dose: 30.0 mg/kg/injection, schedule: Q01DX Z (oral), vehicle: carboxymethylcellulose (CMC)): 93 % of control
- T/C (dose: 60.0 mg/kg/injection, schedule: Q01DX Z (oral), vehicle: carboxymethylcellulose (CMC)): 109 % of control

SMILES: CC(=O)[O][Hg][c]1c(N)c(Cl)cc(C)c1F
- T/C (dose: 10.0 mg/kg/injection, schedule: Q01DX001 (ip), vehicle: Klucel (hydroxypropylcellulose) (HPC)): 101 % of control
- T/C (dose: 20.0 mg/kg/injection, schedule: Q01DX001 (ip), vehicle: Klucel (hydroxypropylcellulose) (HPC)): 86 % of control

SMILES: C=CCc1cc(CN2CCOCC2)c(O)c(OC)c1
- T/C (dose: 100.0 mg/kg/injection, schedule: Q01DX009 (ip), vehicle: Klucel (hydroxypropylcellulose) (HPC)): 98 % of control
- T/C (dose: 100.0 mg/kg/injection, schedule: Q04DX002 (ip), vehicle: Klucel (hydroxypropylcellulose) (HPC)): 101 % of control and 108 % of control
- T/C (dose: 200.0 mg/kg/injection, schedule: Q01DX009 (ip), vehicle: Klucel (hydroxypropylcellulose) (HPC)): 97 % of control
- T/C (dose: 200.0 mg/kg/injection, schedule: Q04DX002 (ip), vehicle: Klucel (hydroxypropylcellulose) (HPC)): 89 % of control
- T/C (dose: 400.0 mg/kg/injection, schedule: Q01DX009 (ip), vehicle: Klucel (hydroxypropylcellulose) (HPC)): 103 % of control
- T/C (dose: 400.0 mg/kg/injection, schedule: Q04DX002 (ip), vehicle: Klucel (hydroxypropylcellulose) (HPC)): 107 % of control

SMILES: Cn1c(CO)cc2ccccc21
- T/C (dose: 100.0 mg/kg/injection, schedule: Q01DX009 (ip), vehicle: saline with Tween-80): 98 % of control
- T/C (dose: 100.0 mg/kg/injection, schedule: Q04DX003 (ip), vehicle: saline with Tween-80): 96 % of control
- T/C (dose: 200.0 mg/kg/injection, schedule: Q01DX009 (ip), vehicle: saline with Tween-80): 98 % of control
- T/C (dose: 200.0 mg/kg/injection, schedule: Q04DX003 (ip), vehicle: saline with Tween-80): 96 % of control
- T/C (dose: 400.0 mg/kg/injection, schedule: Q01DX009 (ip), vehicle: saline with Tween-80): 88 % of control
- T/C (dose: 400.0 mg/kg/injection, schedule: Q04DX003 (ip), vehicle: saline with Tween-80): 98 % of control

SMILES: O=NN(CCCl)C(=O)Nc1ccc2c(c1)OCO2
- T/C (dose: 4.0 mg/kg/injection, schedule: Q01DX009 (ip), vehicle: other): 155 % of control
- T/C (dose: 6.0 mg/kg/injection, schedule: Q01DX009 (ip), vehicle: other): 163 % of control
- T/C (dose: 9.0 mg/kg/injection, schedule: Q01DX009 (ip), vehicle: other): 170 % of control
- T/C (dose: 13.0 mg/kg/injection, schedule: Q01DX009 (ip), vehicle: other): 173 % of control
- T/C (dose: 20.0 mg/kg/injection, schedule: Q01DX001 (ip), vehicle: other): 180 % of control
- T/C (dose: 20.0 mg/kg/injection, schedule: Q01DX009 (ip), vehicle: other): 164 % of control
- T/C (dose: 22.0 mg/kg/injection, schedule: Q01DX009 (ip), vehicle: carboxymethylcellulose (CMC)): 157 % of control
- T/C (dose: 30.0 mg/kg/injection, schedule: Q01DX001 (ip), vehicle: other): 170 % of control
- T/C (dose: 30.0 mg/kg/injection, schedule: Q01DX009 (ip), vehicle: other): 166 % of control and 185 % of control
- T/C (dose: 44.0 mg/kg/injection, schedule: Q01DX009 (ip), vehicle: other): 104 % of control
- T/C (dose: 66.0 mg/kg/injection, schedule: Q01DX001 (ip), vehicle: other): 226 % of control
- T/C (dose: 88.0 mg/kg/injection, schedule: Q01DX001 (ip), vehicle: saline): 151 % of control
- T/C [1]: 151 % of control
- T/C [2]: 160 % of control

SMILES: CCOC(=O)/C(C#N)=C(/C)C(C)C(=O)OCC (stereo not given)
- T/C [4]: 100 % of control
- T/C [7]: 102 % of control
- T/C [5]: 100 % of control
- T/C [6]: 96 % of control

SMILES: Nc1cccc(/C=C/c2ccc([N+](=O)[O-])cc2)c1
- T/C (dose: 100.0 mg/kg/injection, schedule: Q01DX001 (ip), vehicle: Klucel (hydroxypropylcellulose) (HPC)): 91 % of control
- T/C (dose: 200.0 mg/kg/injection, schedule: Q01DX001 (ip), vehicle: Klucel (hydroxypropylcellulose) (HPC)): 87 % of control
- T/C (dose: 400.0 mg/kg/injection, schedule: Q01DX001 (ip), vehicle: Klucel (hydroxypropylcellulose) (HPC)): 94 % of control

SMILES: CC(=O)N(C)N
- T/C (dose: 12.5 mg/kg/injection, schedule: Q01DX009 (ip), vehicle: saline): 98 % of control
- T/C (dose: 12.5 mg/kg/injection, schedule: Q04DX003 (ip), vehicle: saline): 112 % of control
- T/C (dose: 25.0 mg/kg/injection, schedule: Q01DX009 (ip), vehicle: saline): 103 % of control
- T/C (dose: 25.0 mg/kg/injection, schedule: Q04DX003 (ip), vehicle: saline): 106 % of control
- T/C [8]: 104 % of control
- T/C (dose: 50.0 mg/kg/injection, schedule: Q04DX003 (ip), vehicle: saline): 106 % of control
- T/C [7]: 117 % of control
- T/C [3]: 108 % of control
- T/C [9]: 105 % of control

SMILES: CC12CCCC(=O)C1CC/C(=C\c1ccco1)C2=O (stereo not given)
- T/C [7]: 109 % of control
- T/C [3]: 102 % of control
- T/C (dose: 200.0 mg/kg/injection, schedule: Q01DX009 (ip), vehicle: saline): 98 % of control
- T/C [9]: 104 % of control
- T/C (dose: 400.0 mg/kg/injection, schedule: Q01DX009 (ip), vehicle: saline): 114 % of control
- T/C (dose: 400.0 mg/kg/injection, schedule: Q04DX003 (ip), vehicle: saline): 104 % of control

SMILES: CCC(=O)c1ccc(OC(C)=O)cc1
- T/C (dose: 222.0 mg/kg/injection, schedule: Q01DX Z (ip), vehicle: carboxymethylcellulose (CMC)): 100 % of control
- T/C (dose: 333.0 mg/kg/injection, schedule: Q01DX Z (ip), vehicle: carboxymethylcellulose (CMC)): 118 % of control
- T/C (dose: 500.0 mg/kg/injection, schedule: Q01DX Z (ip), vehicle: carboxymethylcellulose (CMC)): 108 % of control

SMILES: CC(=O)NC1=C(N2CC2C)C(=O)C(NC(C)=O)=C(N2CC2C)C1=O (stereo not given)
- T/C (dose: 0.25 mg/kg/injection, schedule: Q01DX009 (ip), vehicle: saline): 109 % of control
- T/C (dose: 0.31 mg/kg/injection, schedule: Q01DX Z (ip), vehicle: saline): 103 % of control
- T/C (dose: 0.5 mg/kg/injection, schedule: Q01DX009 (ip), vehicle: saline): 103 % of control
- T/C (dose: 0.63 mg/kg/injection, schedule: Q01DX Z (ip), vehicle: saline): 103 % of control
- T/C (dose: 1.0 mg/kg/injection, schedule: Q01DX009 (ip), vehicle: saline): 114 % of control
- T/C (dose: 1.25 mg/kg/injection, schedule: Q01DX Z (ip), vehicle: saline): 106 % of control
- T/C (dose: 2.0 mg/kg/injection, schedule: Q01DX009 (ip), vehicle: saline): 120 % of control
- T/C (dose: 2.5 mg/kg/injection, schedule: Q01DX009 (ip), vehicle: saline): 184 % of control
- T/C (dose: 5.0 mg/kg/injection, schedule: Q01DX001 (ip), vehicle: saline): 118 % of control
- T/C (dose: 5.0 mg/kg/injection, schedule: Q01DX009 (ip), vehicle: saline): 108 % of control
- T/C (dose: 10.0 mg/kg/injection, schedule: Q01DX001 (ip), vehicle: saline): 171 % of control
- T/C (dose: 10.0 mg/kg/injection, schedule: Q01DX Z (ip), vehicle: saline): 96 % of control and 111 % of control
- T/C (dose: 20.0 mg/kg/injection, schedule: Q01DX001 (ip), vehicle: saline): 118 % of control
- T/C (dose: 20.0 mg/kg/injection, schedule: Q01DX009 (ip), vehicle: saline): 111 % of control
- T/C (dose: 20.0 mg/kg/injection, schedule: Q01DX Z (ip), vehicle: saline): 103 % of control
- T/C (dose: 40.0 mg/kg/injection, schedule: Q01DX Z (ip), vehicle: saline): 178 % of control
- T/C [8]: 100 % of control
- T/C (dose: 75.0 mg/kg/injection, schedule: Q01DX001 (ip), vehicle: saline): 186 % of control
- T/C (dose: 75.0 mg/kg/injection, schedule: Q01DX009 (ip), vehicle: saline): 92 % of control
- T/C (dose: 150.0 mg/kg/injection, schedule: Q01DX001 (ip), vehicle: saline): 112 % of control
